Experimental data: the supplement of paper PMC11150407

Columns and labels:
Test in all cases: area under dose-response viability curve (log dose) (AUC (arbitrary)); higher = less sensitive
Details in all cases: 72 h
AR-42 = compound: CC(C)[C@H](C(=O)Nc1ccc(C(=O)NO)cc1)c1ccccc1 [AR-42]
Protocol: (§1)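 Primary AML blasts from patients (3q26 EVI1-high and other AML) were treated for 72 h with a dose series of each drug. Viability was measured with an ATP-based CellTiter-Glo assay. The area under the curve of the log-transformed dose-response data was computed in GraphPad Prism; a lower AUC means greater sensitivity.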

Vincristine = compound: CC[C@]1(O)C[C@H]2CN(CCc3c([nH]c4ccccc34)[C@@](C(=O)OC)(c3cc4c(cc3OC)N(C=O)[C@H]3[C@@](O)(C(=O)OC)[C@H](OC(C)=O)[C@]5(CC)C=CCN6CC[C@]43[C@@H]65)C2)C1 [Vincristine]
Protocol: as §1

Methotrexate = compound: CN(Cc1cnc2nc(N)nc(N)c2n1)c1ccc(C(=O)N[C@@H](CCC(=O)O)C(=O)O)cc1 [Methotrexate]
Protocol: as §1

Daunorubicine = compound: COc1cccc2c1C(=O)c1c(O)c3c(c(O)c1C2=O)C[C@@](O)(C(C)=O)C[C@@H]3O[C@H]1C[C@H](N)[C@H](O)[C@H](C)O1 [Daunorubicine]
Protocol: as §1

Entinostat = compound: Nc1ccccc1NC(=O)c1ccc(CNC(=O)OCc2cccnc2)cc1 [Entinostat]
Protocol: as §1

Belinostat = compound: O=C(/C=C/c1cccc(S(=O)(=O)Nc2ccccc2)c1)NO [Belinostat]
Protocol: as §1

Test System | area under dose-response viability curve (AR-42) | area under dose-response viability curve (Vincristine) | area under dose-response viability curve (Methotrexate) | area under dose-response viability curve (Daunorubicine) | area under dose-response viability curve (Entinostat) | area under dose-response viability curve (Belinostat)
PR#025 (EVI1 status: EVI1Low) | 178 | 214 | 247 | 77.4 | 256 | 197
PR#011 (EVI1 status: EVI1Low) | 188 | 196 | 226 | 132 | 200 | 209
PR#003 (EVI1 status: EVI1High) | 112 | 162 | 239 | 68 | 142 | 156
PR#012 (EVI1 status: EVI1Low) | 131 | 89.8 | 218 | 120 | 139 | 192
PR#031 (EVI1 status: EVI1Low) | 189 | 129 | 233 | 34.9 | 229 | 204
PR#030 (EVI1 status: EVI1Low) | 158 | 147 | 233 | 88.5 | 237 | 180
PR#007 (EVI1 status: EVI1High) | 163 | 186 | 245 | 110 | 172 | 157
PR#008 (EVI1 status: EVI1High) | 55.7 | 116 | 195 | 15 | 82.3 | 81.8
PR#016 (EVI1 status: EVI1Low) | 148 | 152 | 270 | 104 | 159 | 156
PR#005 (EVI1 status: EVI1High) | 156 | 156 | 198 | 87.5 | 107 | 138
PR#015 (EVI1 status: EVI1Low) | 149 | 128 | 248 | 37 | 145 | 227
PR#024 (EVI1 status: EVI1High) | 106 | 97 | 249 | 66.1 | 167 | 122
PR#018 (EVI1 status: EVI1Low) | 184 | 204 | 236 | 101 | 211 | 189
PR#032 (EVI1 status: EVI1Low) | 170 | 92.1 | 258 | 58 | 144 | 148
PR#038 (EVI1 status: EVI1Low) | 141 | 187 | 209 | 86 | 143 | 167
PR#035 (EVI1 status: EVI1Low) | 145 | 119 | 198 | 64.4 | 175 | 168

Test System | area under dose-response viability curve (AR-42) | area under dose-response viability curve (Vincristine) | area under dose-response viability curve (Methotrexate) | area under dose-response viability curve (Daunorubicine) | area under dose-response viability curve (Entinostat) | area under dose-response viability curve (Belinostat)
PR#020 (EVI1 status: EVI1Low) | 130 | 128 | 248 | 61.9 | 182 | 246
PR#010 (EVI1 status: EVI1Low) | 121 | 172 | 256 | 93.9 | 147 | 177
PR#014 (EVI1 status: EVI1Low) | 128 | 198 | 248 | 63.9 | 133 | 195
PR#039 (EVI1 status: EVI1Low) | 96 | 95.7 | 201 | 24.5 | 125 | 124
PR#037 (EVI1 status: EVI1Low) | 126 | 113 | 213 | 83.7 | 106 | 127
PR#013 (EVI1 status: EVI1Low) | 130 | 193 | 233 | 68.1 | 153 | 169
PR#006 (EVI1 status: EVI1High) | 120 | 136 | 248 | 57.7 | 120 | 138
PR#036 (EVI1 status: EVI1Low) | 130 | 123 | 251 | 48.2 | 172 | 150
PR#004 (EVI1 status: EVI1High) | 78.8 | 171 | 237 | 63.5 | 84.7 | 121
PR#034 (EVI1 status: EVI1Low) | 142 | 202 | 233 | 192 | 195 | 160
PR#022 (EVI1 status: EVI1Low) | 140 | 175 | 244 | 59.5 | 185 | 161
PR#002 (EVI1 status: EVI1High) | 132 | 179 | 232 | 110 | 145 | 179
PR#028 (EVI1 status: EVI1Low) | 164 | 116 | 252 | 142 | 198 | 182
PR#021 (EVI1 status: EVI1Low) | 189 | 195 | 241 | 122 | 215 | 202
PR#017 (EVI1 status: EVI1Low) | 163 | 204 | 237 | 89.5 | 191 | 160
PR#029 (EVI1 status: EVI1Low) | 167 | 46.3 | 229 | 25.4 | 213 | 221
